pIC50: −log10 of the molar value.
Tests used:
Format in all cases: cell-based
[1] = target: hLPAR1 (human lysophosphatidic acid receptor 1) (Homo sapiens, UniProt Q92633); assay: FLIPR assay of intracellular calcium increase induced by activation of hLPAR1 expressed in CHO-K1 cells; conditions: CHO-K1 cells expressing hLPAR1, agonist oleoyl-L-α-lysophosphatidic acid 1 μM; read-out: LPAR1 IC50
How it was run: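 CHO-K1 cells expressing hLPAR1 were loaded with Fluo-4 AM for 1.0 h at 37° C, then preincubated 30 min at room temperature with compound. Oleoyl-LPA was added at 1 μM final, and calcium fluorescence was recorded by FLIPR for 2 min at 1-s intervals to assess antagonism.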

[2] = tested on: A2058 (human melanoma cells); assay: A2058 cell scratch (migration) assay with LPA; conditions: 10 μM LPA, scratch area at 24 h
[3] = In vitro cytotoxicity assay in HepG2 cells, CCK-8 method; conditions: human
Protocol: In vitro cytotoxicity assay for the compounds disclosed herein was performed in HepG2 cells using the CCK-8 method. HepG2 cells (Beina Bio) in the logarithmic growth phase were collected, the concentration of cell suspension was adjusted, and then the cells were plated on a 96-well cell culture plate at 50,000 cells/well. The cells were then incubated overnight in a cell incubator (5% CO2, 37° C.), and after 80-90% cell confluence was achieved, test compounds or vehicle (DMSO) at various concentration gradients were added after medium change. The resulting mixture was incubated in the cell incubator (5% CO2, 37° C.) for 48 h. After the treatment, the medium in the plate was discarded. The plate was washed twice with PBS, added with CCK-8 working solution (Beyotime) at 100 μL per well, and then incubated at 37° C. for 1.5 h away from the light. Absorbance at OD450 nm was measured for each well on a microplate reader, and CC50 value of each compound was analyzed and calculated.

Sequence of hLPAR1 (human lysophosphatidic acid receptor 1) (Q92633 whole entry): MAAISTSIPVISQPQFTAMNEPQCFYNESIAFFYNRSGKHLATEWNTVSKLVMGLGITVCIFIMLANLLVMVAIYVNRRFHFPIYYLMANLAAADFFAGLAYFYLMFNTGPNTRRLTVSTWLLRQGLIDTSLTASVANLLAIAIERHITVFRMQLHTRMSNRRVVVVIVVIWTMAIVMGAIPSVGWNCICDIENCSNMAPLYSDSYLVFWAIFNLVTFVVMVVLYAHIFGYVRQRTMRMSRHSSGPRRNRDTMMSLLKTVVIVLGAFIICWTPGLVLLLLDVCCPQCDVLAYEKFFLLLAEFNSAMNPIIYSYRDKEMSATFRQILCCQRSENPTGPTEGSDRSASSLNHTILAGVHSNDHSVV

| Structure (SMILES) | pIC50 [1] | Cell migration inhibition rate (%) [2] | CC50 at 48 h [3] [µM] |
| --- | --- | --- | --- |
| Cc1noc(-c2ccc(C3(C(=O)O)CC3)cc2)c1NC(=O)O[C@H](C)c1ccccc1 [Compound 3] | 5.00 to 6.52 | C (C: 0-30%) | > 200 |
| CN(C(=O)OCc1c(-c2ccc(O[C@H]3CCC[C@H](C(=O)O)C3)c(C(F)(F)F)n2)ncn1C)C1CCCC1 (racemic) [Compound 32] | 6.52 to 7.30 | B (B: 30-50%) | > 200 |
| Cc1nc(-c2cnnc(C)c2COC(=O)N(C)C2CCCC2)ccc1O[C@H]1CCC[C@H](C(=O)O)C1 (racemic) [Compound 52] | > 7.30 | B (B: 30-50%) | > 200 |
| Cc1nc(-c2csc(C)c2COC(=O)N(C)C2CCCC2)ccc1O[C@H]1CCC[C@H](C(=O)O)C1 (racemic) [Compound 43] | > 7.30 | A (A: 50-70%) | > 200 |
| Cc1nc(-c2nsc(C)c2COC(=O)N(C)C2CCCC2)ccc1O[C@H]1CCC[C@H](C(=O)O)C1 (racemic) [Compound 39] | > 7.30 | B (B: 30-50%) | > 200 |
| CN(C(=O)OCc1ccccc1-c1ccc(O[C@H]2CCC[C@H](C(=O)O)C2)cc1)C1CCCC1 (racemic) [Compound 21, (+/−)-(1S,3S)-3-((2′-(((cyclopentyl(methyl)carbamoyl)oxy)methyl)-[1,1′-biphenyl]-4-yl)oxy)cyclohexane-1-carboxylate] | 5.00 to 6.52 | C (C: 0-30%) | > 200 |
| Cc1nc(-c2ncoc2COC(=O)N(C)C2CCCC2)ccc1O[C@H]1CCC[C@H](C(=O)O)C1 (racemic) [Compound 26] | 5.00 to 6.52 | C (C: 0-30%) | > 200 |
| Cc1nc(-c2ncnc(C)c2COC(=O)N(C)C2CCCC2)ccc1O[C@H]1CCC[C@H](C(=O)O)C1 (racemic) [Compound 51] | > 7.30 | A (A: 50-70%) | > 200 |
| Cc1nc(-n2cnc(C)c2COC(=O)N(C)C2CCCC2)ccc1O[C@H]1CCC[C@H](C(=O)O)C1 (racemic) [Compound 54] | > 7.30 | B (B: 30-50%) | > 200 |
| Cc1c[nH]c(-c2ccc(O[C@H]3CCC[C@H](C(=O)O)C3)c(C)n2)c1COC(=O)N(C)C1CCCC1 (racemic) [Compound 44] | > 7.30 | B (B: 30-50%) | > 200 |
| Cc1nc(COC(=O)N(C)C2CCCC2)c(-c2ccc(O[C@H]3CCC[C@H](C(=O)O)C3)cc2)s1 (racemic) [Compound 10, (+/−)-(1S,3S)-3-(4-(4-(((cyclopentyl(methyl)carbamoyl)oxy)methyl)-2-methylthiazol-5-yl)phenoxy)cyclohexane-1-carboxylic Acid] | 5.00 to 6.52 | C (C: 0-30%) | > 200 |
| Cc1snc(-c2ccc(O[C@H]3CCC[C@H](C(=O)O)C3)cc2)c1COC(=O)N(C)C1CCCC1 (racemic) [Compound 29, (+/−)-(1S,3S)-3-(4-(4-(((cyclopentyl(methyl)carbamoyl)oxy)methyl)-5-methylisothiazol-3-yl)phenoxy)cyclohexane-1-carboxylic Acid] | > 7.30 | B (B: 30-50%) | > 200 |
| Cc1nc(-c2c[nH]c(C)c2COC(=O)N(C)C2CCCC2)ccc1O[C@H]1CCC[C@H](C(=O)O)C1 (racemic) [Compound 41] | > 7.30 | B (B: 30-50%) | > 200 |
| CN(Cc1ccccc1)C(=O)OCc1nc2c(O[C@H]3CCC[C@H](C(=O)O)C3)cccc2s1 (racemic) [Compound 23, (+/−)-(1S,3S)-3-((2-(((benzyl(methyl)carbamoyl)oxy)methyl)benzo[d]thiazole-4-yl)oxy)cyclohexane-1-carboxylic Acid] | 5.00 to 6.52 | C (C: 0-30%) | > 200 |
| CN(C(=O)OCc1nocc1-c1ccc(O[C@H]2CCC[C@H](C(=O)O)C2)cc1)C1CCCC1 (racemic) [Compound 9, (+/−)-(1S,3S)-3-(4-(3-(((cyclopentyl(methyl)carbamoyl)oxy)methyl)isoxazol-4-yl)phenoxy)cyclohexane-1-carboxylic Acid] | 5.00 to 6.52 | C (C: 0-30%) | > 200 |
| Cc1nc(-c2noc(C)c2COC(=O)N(C)C2CCCC2)ccc1O[C@H]1CCC[C@H](C(=O)O)C1 (racemic) [Compound 38] | > 7.30 | A (A: 50-70%) | > 200 |
| CN(C(=O)OCc1c(-c2ncc(O[C@H]3CCC[C@H](C(=O)O)C3)cn2)cnn1C)C1CCCC1 (racemic) [Compound 100, (+/−)-(1S,3S)-3-((2-(5-(((cyclopentyl(methyl)carbamoyl)oxy)methyl)-1-methyl-1H-pyrazol-4-yl)pyrimidin-5-yl)oxy)cyclohexane-1-carboxylic Acid] | 5.00 to 6.52 | B (B: 30-50%) | > 200 |
| CN(Cc1ccccc1)C(=O)OCc1c(-c2ccc(O[C@H]3CCC[C@H](C(=O)O)C3)cc2)ncn1C (racemic) [Compound 24] | 5.00 to 6.52 | C (C: 0-30%) | > 200 |
| Cc1nc(-c2c(F)nn(C)c2COC(=O)N(C)C2CCCC2)ccc1O[C@H]1CCC[C@H](C(=O)O)C1 [Compound 57] | > 7.30 | A (A: 50-70%) | > 200 |
| Cc1nnc(-c2ccc(O[C@H]3CCC[C@H](C(=O)O)C3)c(C)n2)cc1COC(=O)N(C)C1CCCC1 (racemic) [Compound 49] | > 7.30 | B (B: 30-50%) | > 200 |
| Cc1n[nH]c(-c2ccc(O[C@H]3CCC[C@H](C(=O)O)C3)cc2)c1COC(=O)N(C)C1CCCC1 (racemic) [Compound 27] | > 7.30 | B (B: 30-50%) | > 200 |
| CN(Cc1ccccc1)C(=O)OCc1ocnc1-c1ccc(O[C@H]2CCC[C@H](C(=O)O)C2)cc1 (racemic) [Compound 1, (+/−)-(1S,3S)-3-(4-(5-(((benzyl(methyl)carbamoyl)oxy)methyl)oxazol-4-yl)phenoxy)cyclohexane-1-carboxylic Acid] | 5.00 to 6.52 | C (C: 0-30%) | > 200 |
| CN(C(=O)OCc1c(-c2ccc(O[C@H]3CCC[C@H](C(=O)O)C3)cc2)ncn1C)C1CCCC1 (racemic) [Compound 12, (+/−)-(1S,3S)-3-(4-(5-(((cyclopentyl(methyl)carbamoyl)oxy)methyl)-1-methyl-1H-imidazol-4-yl)phenoxy)cyclohexane-1-carboxylate] | 5.00 to 6.52 | C (C: 0-30%) | > 200 |
| Cc1nc(-c2coc(C)c2COC(=O)N(C)C2CCCC2)ccc1O[C@H]1CCC[C@H](C(=O)O)C1 (racemic) [Compound 42] | > 7.30 | A (A: 50-70%) | > 200 |
| Cc1ccn(-c2ccc(O[C@H]3CCC[C@H](C(=O)O)C3)cc2)c1COC(=O)N(C)C1CCCC1 (racemic) [Compound 31] | > 7.30 | B (B: 30-50%) | > 200 |
| CN(Cc1ccccc1)C(=O)OCc1nc2cc(O[C@H]3CCC[C@H](C(=O)O)C3)ccc2n1C (racemic) [Compound 22] | 5.00 to 6.52 | C (C: 0-30%) | > 200 |
| Cc1nc(-c2ccn(C)c2COC(=O)N(C)C2CCCC2)ccc1O[C@H]1CCC[C@H](C(=O)O)C1 (racemic) [Compound 55] | > 7.30 | A (A: 50-70%) | > 200 |
| Cc1nc(-c2c(C#N)nn(C)c2COC(=O)N(C)C2CCCC2)ccc1O[C@@H]1CCC[C@@H](C(=O)O)C1 (racemic) [Compound 58] | > 7.30 | A (A: 50-70%) | > 200 |
